From ChEMBL document CHEMBL1201862, “PubChem BioAssay data set” (2004)
Activity calls are given as the source filed them.

Columns and labels:
Cytochrome P450 2C19 = Cytochrome P450 2C19 (Homo sapiens, UniProt P33261); assay: Cytochrome panel assay with activity outcomes. Panel member name: p450-cyp2c19 Compounds with AC50 equal or less than 10 uM are considered active; format: functional; conditions: read-out: AC50
Cytochrome P450 1A2 = target: T1, Cytochrome P450 1A2 (Homo sapiens, UniProt P05177);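 also: PubChem cytochrome P450 panel assay, CYP1A2 panel member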
T1 sequence (P05177 whole entry): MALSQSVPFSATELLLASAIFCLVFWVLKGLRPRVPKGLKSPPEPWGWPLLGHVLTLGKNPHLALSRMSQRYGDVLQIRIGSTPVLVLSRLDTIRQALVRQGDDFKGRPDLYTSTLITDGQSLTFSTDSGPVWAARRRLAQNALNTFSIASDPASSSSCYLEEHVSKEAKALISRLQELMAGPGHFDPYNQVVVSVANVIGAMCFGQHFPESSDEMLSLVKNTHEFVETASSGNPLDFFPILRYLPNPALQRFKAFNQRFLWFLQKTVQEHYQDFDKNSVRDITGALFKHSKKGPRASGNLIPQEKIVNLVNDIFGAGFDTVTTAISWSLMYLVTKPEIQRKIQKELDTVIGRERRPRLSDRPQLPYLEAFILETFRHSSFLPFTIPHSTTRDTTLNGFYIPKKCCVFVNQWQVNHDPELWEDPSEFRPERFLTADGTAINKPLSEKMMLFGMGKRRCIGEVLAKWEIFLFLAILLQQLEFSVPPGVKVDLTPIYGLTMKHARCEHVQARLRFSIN

Cytochrome P450 2C9 = Cytochrome P450 2C9 (Homo sapiens, UniProt P11712)
[1] = cytotoxicity in HEK-293T cells, dose response, cytotoxicity control for BCR NF-kB inhibitor project, luminescence, B-cell screen hits (AID 489021); format: functional, cell-based;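 also: HEK-293T cells carrying an NF-kB luciferase reporter; cells exposed to compound for about 14 hours before viability readout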
Estrogen receptor = target: T2, Estrogen receptor (Homo sapiens, UniProt P03372);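 also: potency for inhibiting coactivator peptide recruitment to the receptor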
T2 sequence (P03372 whole entry): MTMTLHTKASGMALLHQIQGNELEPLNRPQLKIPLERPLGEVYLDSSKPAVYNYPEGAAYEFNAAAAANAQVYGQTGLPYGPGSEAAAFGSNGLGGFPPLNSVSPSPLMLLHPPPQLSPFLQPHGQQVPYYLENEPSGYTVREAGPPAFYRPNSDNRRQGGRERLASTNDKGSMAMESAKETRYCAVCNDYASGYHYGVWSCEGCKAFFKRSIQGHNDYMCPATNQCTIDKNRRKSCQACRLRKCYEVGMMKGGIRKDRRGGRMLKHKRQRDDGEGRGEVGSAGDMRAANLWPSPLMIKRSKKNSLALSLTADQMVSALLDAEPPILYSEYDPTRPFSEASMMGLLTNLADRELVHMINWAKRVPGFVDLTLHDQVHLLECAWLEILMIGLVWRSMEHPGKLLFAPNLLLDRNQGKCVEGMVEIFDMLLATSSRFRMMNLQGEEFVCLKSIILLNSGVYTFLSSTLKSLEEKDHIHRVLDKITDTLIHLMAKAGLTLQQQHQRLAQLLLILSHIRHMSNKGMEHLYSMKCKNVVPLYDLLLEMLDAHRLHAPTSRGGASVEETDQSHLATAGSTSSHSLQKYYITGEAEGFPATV

[2] = target: T3, Endoribonuclease toxin MazF (Escherichia coli K-12, UniProt P0AE70); assay: MazF toxin RNase activators, dose response, biochemical, fluorescence, single-stranded RNA substrate, uHTS hits (AID 588481); format: functional
T3 sequence (P0AE70 whole entry): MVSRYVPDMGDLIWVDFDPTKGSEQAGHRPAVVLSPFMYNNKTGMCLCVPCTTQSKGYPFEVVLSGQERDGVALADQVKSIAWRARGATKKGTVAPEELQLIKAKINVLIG

[3] = target: T3, Endoribonuclease toxin MazF; assay: fluorescent RNA oligo signal without MazF, dose response, counter-screen for MazEF activator project, biochemical, fluorescence, single-stranded RNase substrate (AID 588502); format: functional
Large T antigen = Large T antigen (Simian virus 40, UniProt P03070); format: functional, Betapolyomavirus macacae;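 also: Confirmatory-stage PubChem screen for compounds that inhibit SV40 T antigen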
Cytochrome P450 2D6 = Cytochrome P450 2D6 (Homo sapiens, UniProt P10635);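 also: CYP2D6 member of a cytochrome P450 panel assay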
[4] = target: 72 kDa type IV collagenase (Homo sapiens, UniProt P08253); assay: Dose Response validation of uHTS RPN11 inhibitor hits using a MMP-2 Fluorescence assay.; format: functional
Prothrombin = Prothrombin (Bos taurus, UniProt P00735); assay: thrombin inhibition, dose response, biochemical, fluorescence polarization, uHTS hits (AID 602369); format: functional
[5] = target: 26S proteasome non-ATPase regulatory subunit 14 (Homo sapiens, UniProt O00487); assay: inhibition of proteasome subunit RPN11 – biochemical, fluorescence polarization, uHTS hits, confirmation (AID 602368); format: functional
[6] = THP-1 cell cytotoxicity, dose response, cytotoxicity control for non-replicating M. tuberculosis project (AID 489025); format: functional
[7] = HepG2 cell cytotoxicity, dose response, cytotoxicity control for Shn3 inhibitor project, CellTiter-Glo, cherry-picked (AID 624134); format: functional, cell-based
[8] = control 3'UTR Renilla luciferase suppression, dose response, counter-screen for Shn3 inhibitor project, cell-based, Clone20-Shn3RL, cherry-picked (AID 624133); format: functional
INS1 = assay: beta cell apoptosis inhibitors, cytokine rescue, dose response, luminescence, retest (AID 449756); format: functional, cell-based; conditions: Rattus norvegicus;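 also: cell death triggered by IL-1 beta plus TNF-alpha plus IFN-gamma mixture; protective hits raise ATP signal compared with cytokine alone wells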
[9] = Shn3 3'UTR reporter inhibitors, dose response, cell-based, Clone20 osteoblasts, firefly luciferase, cherry-picked (AID 624132); format: functional;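 also: firefly luciferase luminescence from reporter carrying the Shn3 3'UTR in osteoblasts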
[10] = target: DNA dC->dU-editing enzyme APOBEC-3G (Homo sapiens, UniProt Q9HC16); assay: Dose Response confirmation of small molecule APOBEC3G DNA Deaminase Inhibitors via a fluorescence-based single-stranded DNA deaminase assay. [Related pubchem assays (depositor defined):AID493012, AID493028]; format: functional
Sequence of DNA dC->dU-editing enzyme APOBEC-3G (Q9HC16 whole entry): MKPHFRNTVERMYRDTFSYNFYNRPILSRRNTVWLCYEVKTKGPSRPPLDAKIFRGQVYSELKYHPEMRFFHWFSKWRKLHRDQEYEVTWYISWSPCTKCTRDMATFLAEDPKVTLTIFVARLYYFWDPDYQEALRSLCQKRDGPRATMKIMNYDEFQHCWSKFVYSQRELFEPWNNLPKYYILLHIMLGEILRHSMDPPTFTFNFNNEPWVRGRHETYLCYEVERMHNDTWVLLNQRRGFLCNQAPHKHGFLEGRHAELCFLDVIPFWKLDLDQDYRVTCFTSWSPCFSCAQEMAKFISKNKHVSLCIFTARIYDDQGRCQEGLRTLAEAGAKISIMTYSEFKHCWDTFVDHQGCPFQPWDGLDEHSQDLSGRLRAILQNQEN

Sequence of Cytochrome P450 2C9 (P11712 whole entry): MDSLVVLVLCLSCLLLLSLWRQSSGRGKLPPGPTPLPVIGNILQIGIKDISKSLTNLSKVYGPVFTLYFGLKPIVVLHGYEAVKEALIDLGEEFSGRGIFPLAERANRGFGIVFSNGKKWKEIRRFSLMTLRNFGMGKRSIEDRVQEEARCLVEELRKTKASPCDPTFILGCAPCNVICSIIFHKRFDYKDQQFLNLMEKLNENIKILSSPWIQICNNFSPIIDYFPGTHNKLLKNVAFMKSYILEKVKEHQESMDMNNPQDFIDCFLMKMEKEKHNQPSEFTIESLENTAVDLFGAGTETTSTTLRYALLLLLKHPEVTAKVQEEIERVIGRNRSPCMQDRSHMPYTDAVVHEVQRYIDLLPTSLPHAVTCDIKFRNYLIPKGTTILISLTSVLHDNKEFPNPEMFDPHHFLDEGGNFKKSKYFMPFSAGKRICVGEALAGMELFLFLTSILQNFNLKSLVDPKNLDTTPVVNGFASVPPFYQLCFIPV
Sequence of Cytochrome P450 2C19 (P33261 whole entry): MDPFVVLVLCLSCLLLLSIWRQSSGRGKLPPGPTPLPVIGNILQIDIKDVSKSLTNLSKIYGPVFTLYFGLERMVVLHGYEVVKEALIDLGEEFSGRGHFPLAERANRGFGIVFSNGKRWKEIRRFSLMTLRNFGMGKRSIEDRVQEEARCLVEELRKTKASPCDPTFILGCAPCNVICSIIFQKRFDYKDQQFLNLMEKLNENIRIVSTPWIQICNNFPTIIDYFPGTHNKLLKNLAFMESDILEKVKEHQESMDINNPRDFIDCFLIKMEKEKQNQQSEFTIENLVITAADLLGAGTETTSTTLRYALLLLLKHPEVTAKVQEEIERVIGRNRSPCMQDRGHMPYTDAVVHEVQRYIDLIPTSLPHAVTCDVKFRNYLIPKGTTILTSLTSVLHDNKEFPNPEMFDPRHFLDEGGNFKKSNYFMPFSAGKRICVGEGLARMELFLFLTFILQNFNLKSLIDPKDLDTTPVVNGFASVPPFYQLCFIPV
Sequence of 26S proteasome non-ATPase regulatory subunit 14 (O00487 whole entry): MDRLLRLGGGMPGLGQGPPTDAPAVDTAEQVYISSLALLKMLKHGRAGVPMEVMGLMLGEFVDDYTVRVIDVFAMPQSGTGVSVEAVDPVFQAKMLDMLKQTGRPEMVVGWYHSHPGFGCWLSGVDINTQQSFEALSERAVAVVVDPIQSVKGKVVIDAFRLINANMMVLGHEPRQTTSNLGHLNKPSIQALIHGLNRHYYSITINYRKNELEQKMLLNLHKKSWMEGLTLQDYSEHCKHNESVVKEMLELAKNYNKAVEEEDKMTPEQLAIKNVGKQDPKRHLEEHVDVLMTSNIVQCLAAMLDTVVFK
Sequence of 72 kDa type IV collagenase (P08253 whole entry): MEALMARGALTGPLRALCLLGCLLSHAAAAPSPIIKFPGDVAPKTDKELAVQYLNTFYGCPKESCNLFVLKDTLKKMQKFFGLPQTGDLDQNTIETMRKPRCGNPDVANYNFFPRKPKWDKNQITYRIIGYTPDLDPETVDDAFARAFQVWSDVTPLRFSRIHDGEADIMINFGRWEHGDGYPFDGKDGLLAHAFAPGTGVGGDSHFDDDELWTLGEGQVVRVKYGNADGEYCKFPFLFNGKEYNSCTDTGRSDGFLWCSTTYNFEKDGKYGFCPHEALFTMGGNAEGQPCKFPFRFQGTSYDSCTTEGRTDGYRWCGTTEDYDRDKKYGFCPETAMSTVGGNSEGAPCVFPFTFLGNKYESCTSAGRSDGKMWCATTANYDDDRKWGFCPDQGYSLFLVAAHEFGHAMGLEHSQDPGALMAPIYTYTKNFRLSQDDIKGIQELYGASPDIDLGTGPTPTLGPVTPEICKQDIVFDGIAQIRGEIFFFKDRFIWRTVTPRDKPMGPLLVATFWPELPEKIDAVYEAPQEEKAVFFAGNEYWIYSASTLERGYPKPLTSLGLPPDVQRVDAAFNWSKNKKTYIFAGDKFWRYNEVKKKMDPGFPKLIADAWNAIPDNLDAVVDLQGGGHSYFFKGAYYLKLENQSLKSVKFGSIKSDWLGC
Sequence of Cytochrome P450 2D6 (P10635 whole entry): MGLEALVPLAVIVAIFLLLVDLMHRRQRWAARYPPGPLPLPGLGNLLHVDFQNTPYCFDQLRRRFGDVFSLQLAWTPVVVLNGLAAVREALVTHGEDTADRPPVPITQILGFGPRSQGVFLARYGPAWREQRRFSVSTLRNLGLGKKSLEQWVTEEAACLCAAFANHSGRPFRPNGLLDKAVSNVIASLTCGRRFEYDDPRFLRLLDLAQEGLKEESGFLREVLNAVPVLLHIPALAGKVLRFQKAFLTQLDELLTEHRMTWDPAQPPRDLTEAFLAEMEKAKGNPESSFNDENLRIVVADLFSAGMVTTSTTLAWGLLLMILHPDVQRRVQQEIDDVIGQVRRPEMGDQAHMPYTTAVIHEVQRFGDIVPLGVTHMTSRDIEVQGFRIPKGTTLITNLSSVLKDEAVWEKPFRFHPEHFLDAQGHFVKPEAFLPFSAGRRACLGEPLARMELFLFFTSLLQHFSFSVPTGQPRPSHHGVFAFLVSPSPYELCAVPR
Sequence of Large T antigen (P03070 whole entry): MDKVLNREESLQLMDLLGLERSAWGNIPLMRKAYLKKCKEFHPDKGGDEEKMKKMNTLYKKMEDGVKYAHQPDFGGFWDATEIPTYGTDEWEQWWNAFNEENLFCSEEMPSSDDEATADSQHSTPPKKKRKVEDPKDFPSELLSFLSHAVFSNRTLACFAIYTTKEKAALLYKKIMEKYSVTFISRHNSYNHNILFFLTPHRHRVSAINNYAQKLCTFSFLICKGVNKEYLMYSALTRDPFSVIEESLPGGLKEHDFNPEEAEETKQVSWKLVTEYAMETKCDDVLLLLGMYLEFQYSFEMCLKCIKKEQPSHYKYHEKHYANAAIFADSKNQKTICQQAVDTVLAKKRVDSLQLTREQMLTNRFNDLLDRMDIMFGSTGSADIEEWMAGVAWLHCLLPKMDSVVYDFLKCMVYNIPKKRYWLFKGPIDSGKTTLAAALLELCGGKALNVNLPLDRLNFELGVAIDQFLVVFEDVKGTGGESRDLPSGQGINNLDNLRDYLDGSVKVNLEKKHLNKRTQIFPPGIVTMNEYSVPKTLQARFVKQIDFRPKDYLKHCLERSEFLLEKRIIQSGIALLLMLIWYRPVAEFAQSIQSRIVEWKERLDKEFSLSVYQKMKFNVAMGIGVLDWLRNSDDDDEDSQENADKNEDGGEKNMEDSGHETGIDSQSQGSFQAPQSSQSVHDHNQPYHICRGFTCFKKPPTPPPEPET

## CC1(C)CC2(CC(C)(C(=O)CSc3nc4ccccc4s3)OC2=O)C(=O)O1 (stereo not drawn)
Cytochrome P450 2C19
  AC50: 8.91 µM (inconclusive)
Cytochrome P450 1A2
  AC50: 28.2 µM (inconclusive)
Cytochrome P450 2C9
  AC50: inconclusive

## CC1(c2nnc(-c3cccc(Cl)c3)o2)CC(c2cccc(Cl)c2)=NO1 (stereo not drawn)
[1]
  IC50: > 80 µM (inactive)

## Cn1c(=O)cc(OCC(=O)N2CCC3(CC2)OCCO3)c2ccccc21
[1]
  IC50: > 80 µM (inactive)

## Cc1c(CCO)c(O)oc2nnc(-c3ccccc3)c1-2
[1]
  IC50: > 80 µM (inactive)

## Cn1c(=O)n(C)c2cc(NC(=O)CSc3nnc(-c4ccccc4O)n3-c3ccccc3)ccc21
[1]
  IC50: > 80 µM (inactive)

## COC(=O)c1ccc2c(=O)n(CCCCCC(=O)NCc3ccc4c(c3)OCO4)c(=O)[nH]c2c1
Estrogen receptor
  IC50: 14.8 µM (active)

## CC/C(=N/Nc1cccc(C)c1)c1cnnc(SC)n1
[2]
  EC50: > 99 µM (inactive)
[3]
  EC50: > 99 µM (inactive)

## Brc1ccc2cccnc2c1
Cytochrome P450 2C19
  AC50: 0.316 µM (inconclusive)
Cytochrome P450 2C9
  AC50: inconclusive

## N#C/C(=C\c1ccc(O)c(O)c1)C(=O)Nc1ccccc1
Large T antigen
  IC50: 13.1 µM (active)
Cytochrome P450 2D6
  AC50: 39.8 µM (inconclusive)
[4]
  IC50: > 100 µM (inactive)
Prothrombin
  IC50: 67.9 µM (active)
[5]
  IC50: 1.3 µM (active)

## Cn1cccc1/C=N\NC(=O)C1COc2ccccc2O1 (stereo not drawn)
[6]
  CC50: > 40 µM (active)

## O=[N+]([O-])c1ccc(Sc2cccc3cccnc23)c([N+](=O)[O-])c1
[7]
  AC50: > 70 µM (inactive)
[8]
  AC50: 15.2 µM (active)
[4]
  IC50: > 100 µM (inactive)
INS1
  AC50: 1.18 µM (active)
Prothrombin
  IC50: > 100 µM (inactive)
[9]
  AC50: 1.71 µM (active)
[5]
  IC50: 27.6 µM (active)

## O=C1NC(=O)N(C2CCCCC2)C(=O)/C1=C\C=C\Nc1ccccc1
[2]
  EC50: > 99 µM (inactive)
[3]
  EC50: 9.49 µM (active)

## CCOc1ccc(C(S)=NC2CCCCC2)cc1OC
[10]
  IC50: 64.7 µM (active)
